Where two headings read alike, the source gives them in different places.
Assays:
cyclooxygenase-2 (COX-2) = target: T1, cyclooxygenase-2 (COX-2) (Ovis aries, UniProt P79208); assay: inhibitory activity on cyclooxygenase-2 (Experimental Example 1-1, sheep placenta solubilized fraction); type: biochemical; conditions: for IC50: sheep placenta COX-2, pH 8, 24° C.; for inhibition at 100 µM: sheep placenta COX-2, inhibition at 100 μM test compound
T1 sequence (P79208 17-603): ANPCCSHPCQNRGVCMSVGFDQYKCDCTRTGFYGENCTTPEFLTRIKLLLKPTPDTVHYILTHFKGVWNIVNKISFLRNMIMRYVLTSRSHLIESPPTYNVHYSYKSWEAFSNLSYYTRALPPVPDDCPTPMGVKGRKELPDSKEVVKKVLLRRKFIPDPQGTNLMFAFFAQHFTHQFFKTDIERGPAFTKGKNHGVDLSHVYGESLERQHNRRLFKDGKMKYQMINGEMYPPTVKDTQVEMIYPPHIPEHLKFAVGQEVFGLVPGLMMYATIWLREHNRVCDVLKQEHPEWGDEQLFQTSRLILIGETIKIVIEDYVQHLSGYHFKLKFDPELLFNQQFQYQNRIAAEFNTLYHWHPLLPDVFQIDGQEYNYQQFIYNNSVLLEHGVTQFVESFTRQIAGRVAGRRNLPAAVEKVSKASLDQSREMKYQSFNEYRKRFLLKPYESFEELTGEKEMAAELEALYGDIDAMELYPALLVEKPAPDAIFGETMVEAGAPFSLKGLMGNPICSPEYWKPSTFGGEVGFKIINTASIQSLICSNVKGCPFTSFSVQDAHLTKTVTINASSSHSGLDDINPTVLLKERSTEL
Method: (§1) That is, a test sample (20 μl), an enzyme solution (20 μl) and distilled water (10 μl) were added to 100 mM Tris-HCl buffer (pH 8, 140 μl) containing hematin (2 μM) and tryptophan (5 mM), and the mixture was thoroughly stirred, which was followed by preincubation at 24° C. for 5 minutes. Then, a ^1 4 C arachidonic acid solution (10 μl) was added and the mixture was reacted at 24° C., whereafter a solution (40 μl) of ethyl ether/methanol/1 M citric acid (30/4/1) ice-cooled to -20° C. was added to stop the reaction.

cyclooxygenase-1 (COX-1) [1] = target: T2, cyclooxygenase-1 (COX-1) (Ovis aries, UniProt P05979); assay: inhibitory activity on cyclooxygenase-1 (Experimental Example 1-1, sheep seminal vesicle microsome fraction); type: biochemical; conditions: for IC50: sheep seminal vesicle COX-1, pH 8, 24° C.; for inhibition at 100 µM: sheep seminal vesicle COX-1, inhibition at 100 μM test compound
T2 sequence (P05979 25-600): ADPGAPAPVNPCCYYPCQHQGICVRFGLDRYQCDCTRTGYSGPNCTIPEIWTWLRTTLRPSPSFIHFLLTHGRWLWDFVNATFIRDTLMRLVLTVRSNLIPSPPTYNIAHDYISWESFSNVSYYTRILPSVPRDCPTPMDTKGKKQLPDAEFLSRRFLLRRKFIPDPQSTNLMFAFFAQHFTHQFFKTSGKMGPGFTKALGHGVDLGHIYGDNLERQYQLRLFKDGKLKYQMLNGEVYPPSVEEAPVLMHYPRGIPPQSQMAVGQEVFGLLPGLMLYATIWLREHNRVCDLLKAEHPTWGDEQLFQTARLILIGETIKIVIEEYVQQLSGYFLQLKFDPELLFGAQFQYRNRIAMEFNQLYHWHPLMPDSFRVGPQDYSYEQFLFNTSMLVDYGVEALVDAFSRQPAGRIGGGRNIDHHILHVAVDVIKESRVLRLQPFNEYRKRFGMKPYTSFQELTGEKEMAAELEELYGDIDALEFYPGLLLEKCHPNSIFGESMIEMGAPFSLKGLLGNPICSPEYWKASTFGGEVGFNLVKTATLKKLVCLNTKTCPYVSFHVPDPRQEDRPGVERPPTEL
Method: as §1

[2] = target: T3, human cyclooxygenase-2 (COX-2) (Homo sapiens, UniProt P35354); assay: inhibitory activity on cyclooxygenase-2 (Experimental Example 1-2, human COX-2 expressed by yeast); type: biochemical
T3 construct: made in house
T3 sequence (P35354 18-604): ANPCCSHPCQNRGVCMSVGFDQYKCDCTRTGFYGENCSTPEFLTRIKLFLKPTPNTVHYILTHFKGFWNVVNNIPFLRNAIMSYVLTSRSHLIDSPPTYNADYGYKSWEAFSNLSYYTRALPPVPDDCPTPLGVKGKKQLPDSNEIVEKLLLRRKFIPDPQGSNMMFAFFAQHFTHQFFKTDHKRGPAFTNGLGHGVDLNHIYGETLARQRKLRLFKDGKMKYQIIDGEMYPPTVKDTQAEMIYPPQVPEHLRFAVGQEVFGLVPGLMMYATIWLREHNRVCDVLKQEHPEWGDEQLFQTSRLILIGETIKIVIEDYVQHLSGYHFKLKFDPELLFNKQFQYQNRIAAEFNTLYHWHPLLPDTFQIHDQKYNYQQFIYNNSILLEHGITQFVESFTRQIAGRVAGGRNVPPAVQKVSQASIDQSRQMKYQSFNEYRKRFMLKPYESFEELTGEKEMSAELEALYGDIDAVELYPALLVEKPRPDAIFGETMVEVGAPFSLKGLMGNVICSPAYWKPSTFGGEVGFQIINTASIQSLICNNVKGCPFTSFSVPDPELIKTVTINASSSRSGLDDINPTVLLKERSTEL
Method: as §1

cyclooxygenase-1 (COX-1) [3] = target: T4, cyclooxygenase-1 (COX-1) (Homo sapiens, UniProt P23219); assay: inhibitory activity on cyclooxygenase-1 (Experimental Example 1-2, enzyme prepared from human platelets); type: biochemical; conditions: COX-1 prepared from human platelets
T4 construct: an enzyme prepared from human platelets; from tissue; host or cells: human platelets
T4 sequence (P23219 24-599): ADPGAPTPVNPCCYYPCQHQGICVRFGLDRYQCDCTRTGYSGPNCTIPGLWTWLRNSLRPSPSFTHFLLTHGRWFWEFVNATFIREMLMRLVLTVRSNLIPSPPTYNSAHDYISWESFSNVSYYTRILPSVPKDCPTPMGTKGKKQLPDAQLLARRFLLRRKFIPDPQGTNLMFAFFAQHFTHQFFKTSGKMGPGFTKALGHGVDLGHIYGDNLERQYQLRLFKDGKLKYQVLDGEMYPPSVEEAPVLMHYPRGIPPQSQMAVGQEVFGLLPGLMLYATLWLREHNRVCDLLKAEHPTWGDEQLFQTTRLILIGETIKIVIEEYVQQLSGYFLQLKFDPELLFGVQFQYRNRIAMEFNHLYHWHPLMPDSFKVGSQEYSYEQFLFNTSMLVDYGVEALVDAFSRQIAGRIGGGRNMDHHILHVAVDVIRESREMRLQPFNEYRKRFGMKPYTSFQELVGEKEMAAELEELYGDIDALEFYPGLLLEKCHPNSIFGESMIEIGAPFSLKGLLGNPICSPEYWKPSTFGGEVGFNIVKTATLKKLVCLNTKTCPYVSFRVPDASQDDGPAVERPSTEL
Method: as §1

[4] = test system: carrageenin-induced paw edema; assay: effects on carrageenin-induced paw edema in rats (Experimental Example 2); type: in vivo, male Donryu rats; conditions: Rattus norvegicus, po, 3 h
Method: Carrageenin (1%, 0.05 ml) dissolved in physiological saline was subcutaneously injected to the left hind paw of male Donryu rats to induce paw edema. The degree of paw edema was evaluated by measuring the volume of the paw 3 hours after carrageenin administration. […] Inhibitory activity was expressed by the dose (ED30) of the test compound necessary for inhibiting by 30% relative to the control group.

[5] = effects on gastric ulcer formation in rats (Experimental Example 3); design: species or system male Donryu rats; conditions: rat, in vivo
Method: A test compound (100 mg/kg) was orally administered (10 ml/kg) to male Donryu rats. Six hours later, the stomach of the rats was exposed and fixed with 0.1% formalin. The stomach was opened and the degree of ulcer formation was evaluated.

SMILES: Cc1nc(-c2ccc(C)s2)c(-c2ccc(S(C)(=O)=O)cc2)o1 [2(A), 5-(4-methylsulfonylphenyl)-2-methyl-4-(5-methyl-2-thienyl)oxazole]
- IC50 (cyclooxygenase-2 (COX-2)): 0.4 µM
- IC50 (cyclooxygenase-1 (COX-1) [1]): 50 µM
- IC50 [2]: 40 nM
- IC50 (cyclooxygenase-1 (COX-1) [3]): 47.5 µM
- ED30 [4]: 10.8 mg/kg
- TD50 at 6 h ([5]; po): > 100 mg/kg

SMILES: Cc1nc(-c2ccc(S(C)(=O)=O)cc2)c(-c2ccc(C)s2)o1 [2(B), 4-(4-methylsulfonylphenyl)-2-methyl-5-(5-methyl-2-thienyl)oxazole]
- IC50 (cyclooxygenase-2 (COX-2)): 80 µM
- inhibition at 100 µM (cyclooxygenase-1 (COX-1) [1]): 10%

SMILES: Cc1nc(-c2ccc(Cl)s2)c(-c2ccc(S(C)(=O)=O)cc2)o1 [10(A), 4-(5-chloro-2-thienyl)-2-methyl-5-(4-methylsulfonylphenyl)oxazole]
- IC50 (cyclooxygenase-2 (COX-2)): 0.2 µM
- inhibition at 100 µM (cyclooxygenase-1 (COX-1) [1]): 13%
- IC50 [2]: 30 nM
- IC50 (cyclooxygenase-1 (COX-1) [3]): 12.5 µM
- ED30 [4]: 5.4 mg/kg
- TD50 at 6 h ([5]; po): > 100 mg/kg

SMILES: Cc1nc(-c2ccc(S(C)(=O)=O)cc2)c(-c2ccc(Cl)s2)o1 [10(B), 5-(5-chloro-2-thienyl)-2-methyl-4-(4-methylsulfonylphenyl)oxazole]
- IC50 (cyclooxygenase-2 (COX-2)): 30 µM
- inhibition at 100 µM (cyclooxygenase-1 (COX-1) [1]): 57%

SMILES: Cc1nc(-c2cccs2)c(-c2ccc(S(C)(=O)=O)cc2)o1 [11(A), 5-(4-methylsulfonylphenyl)-2-methyl-4-(2-thienyl)oxazole]
- IC50 (cyclooxygenase-2 (COX-2)): 50 µM
- inhibition at 100 µM (cyclooxygenase-1 (COX-1) [1]): 14%
- ED30 [4]: 9.5 mg/kg

SMILES: Cc1nc(-c2ccc(S(C)(=O)=O)cc2)c(-c2cccs2)o1 [11(B), 4-(4-methylsulfonylphenyl)-2-methyl-5-(2-thienyl)oxazole]
- inhibition at 100 µM (cyclooxygenase-2 (COX-2)): 2%
- inhibition at 100 µM (cyclooxygenase-1 (COX-1) [1]): 6%

SMILES: Cc1nc(C2CCCCC2)c(-c2ccc(S(C)(=O)=O)cc2)o1 [Example 1, 4-Cyclohexyl-2-methyl-5-(4-methylsulfonylphenyl)oxazole]
- inhibition at 100 µM (cyclooxygenase-1 (COX-1) [1]): 11%
- ED30 [4]: 5.4 mg/kg
- TD50 at 6 h ([5]; po): > 100 mg/kg

SMILES: CCc1nc(C2CCCCC2)c(-c2ccc(S(C)(=O)=O)cc2)o1 [Example 3, 4-Cyclohexyl-2-ethyl-5-(4-methylsulfonylphenyl)oxazole]
- IC50 (cyclooxygenase-2 (COX-2)): < 1 µM
- inhibition at 100 µM (cyclooxygenase-1 (COX-1) [1]): 18%

SMILES: Cc1nc(C2CCC(C)CC2)c(-c2ccc(S(C)(=O)=O)cc2)o1 (centres unmarked) [Example 4, 5-(4-methylsulfonylphenyl)-2-methyl-4-(4-methylcyclohexyl)oxazole]
- IC50 (cyclooxygenase-2 (COX-2)): 4 µM
- inhibition at 100 µM (cyclooxygenase-1 (COX-1) [1]): 26%
- IC50 (cyclooxygenase-1 (COX-1) [3]): > 100 µM

SMILES: CC1=CCC(c2nc(C)oc2-c2ccc(S(C)(=O)=O)cc2)CC1 (centres unmarked) [Example 5]
- IC50 (cyclooxygenase-2 (COX-2)): 10 µM
- inhibition at 100 µM (cyclooxygenase-1 (COX-1) [1]): 5%

SMILES: Cc1nc(C2CCCC2)c(-c2ccc(S(C)(=O)=O)cc2)o1 [Example 6, 4-cyclopentyl-2-methyl-5-(4-methylsulfonylphenyl)oxazole]
- inhibition at 100 µM (cyclooxygenase-2 (COX-2)): 18%
- IC50 (cyclooxygenase-1 (COX-1) [1]): 50 µM

SMILES: Cc1nc(C2CCCCCC2)c(-c2ccc(S(C)(=O)=O)cc2)o1 [Example 7, 4-cycloheptyl-2-methyl-5-(4-methylsulfonylphenyl)oxazole]
- IC50 (cyclooxygenase-1 (COX-1) [1]): 2 µM

SMILES: Cc1nc(-c2ccco2)c(-c2ccc(S(C)(=O)=O)cc2)o1 [Example 8, 4-(2-furyl)-2-methyl-5-(4-methylsulfonylphenyl)oxazole]
- inhibition at 100 µM (cyclooxygenase-2 (COX-2)): 7%
- inhibition at 100 µM (cyclooxygenase-1 (COX-1) [1]): 7%

SMILES: Cc1nc(-c2ccsc2)c(-c2ccc(S(C)(=O)=O)cc2)o1 [Example 9, 5-(4-methylsulfonylphenyl)-2-methyl-4-(3-thienyl)oxazole]
- inhibition at 100 µM (cyclooxygenase-2 (COX-2)): 35%
- inhibition at 100 µM (cyclooxygenase-1 (COX-1) [1]): 2%

SMILES: CS(=O)(=O)c1ccc(-c2oc(-c3ccccc3)nc2C2CCCCC2)cc1 [Example 12, 2-phenyl-4-cyclohexyl-5-(4-methylsulfonylphenyl)oxazole, reference compound]
- inhibition at 100 µM (cyclooxygenase-2 (COX-2)): 16%
- IC50 (cyclooxygenase-1 (COX-1) [1]): > 100 µM

SMILES: Cc1nc(-c2ccc(Cl)s2)c(-c2ccc(S(N)(=O)=O)cc2)o1 [Example 13, 5-(4-Aminosulfonylphenyl)-4-(5-chloro-2-thienyl)-2-methyloxazole]
- IC50 [2]: 20 nM
- IC50 (cyclooxygenase-1 (COX-1) [3]): 0.6 µM

SMILES: Cc1nc(C2CCCCC2)c(-c2ccc(S(N)(=O)=O)cc2)o1 [Example 14, 5-(4-Aminosulfonylphenyl)-4-cyclohexyl-2-methyloxazole]
- IC50 (cyclooxygenase-2 (COX-2)): 1.5 µM
- IC50 (cyclooxygenase-1 (COX-1) [1]): > 100 µM
- IC50 [2]: 70 nM
- ED30 [4]: 4.5 mg/kg
- TD50 at 6 h ([5]; po): > 100 mg/kg

SMILES: CNS(=O)(=O)c1ccc(-c2oc(C)nc2C2CCCCC2)cc1 [Example 15, 4-Cyclohexyl-2-methyl-5-(4-methylaminosulfonylphenyl)oxazole]
- IC50 [2]: 4000 nM

SMILES: COc1ccc2c(c1)c(CC(=O)O)c(C)n2C(=O)c1ccc(Cl)cc1 [indomethacin, reference compound]
- ED30 [4]: 2.9 mg/kg
- TD50 at 6 h ([5]; oral, stomach examined six hours later, read-out: gastric ulcer formation in rats): 10 mg/kg

— patent US5945539A, “Oxazole derivatives and use thereof” (Japan Tobacco, Inc., priority 1994, dated 1999)
